Measurements from patent publication US20060258754A1, “Method of treating endothelial dysfunction, oxidative stress and related diseases” (priority 2004, published 2006).

What was measured:
vascular mesenteric bed = test: Rat arteriolar mesenteric bed: acetylcholine-evoked decrease in perfusion pressure after 4-week oral treatment; format: in vivo, alloxan-diabetic male Wistar rats; conditions: for effect on microvascular endothelial dysfunction: chronic (4-week) oral administration, highest acetyl choline concentrations, FIG. 4
Description: Male Wistar rats, weighing between 230-250 g, fed regular chow, with free access to water were separated in four groups (n=10/each). The first two groups, termed normoglycemic, were treated with saline (0.1 mL/100 g/12 h) by the oral route (intragastric gavage) or untreated for four weeks. The second two groups, hyperglycemic, were treated with saline (0.1 mL/100 g/12 h) or treated with D-chiro-inositol (20 mg/kg/12 h) under the same protocol. […] Diabetes was induced by a single intravenous injection of 45 mg/kg alloxan as described by Sannomiya et al., 1997 ( ). Diabetes was diagnosed 96 h after injection by blood glucose assay >200 mg/dL. All protocols were approved by the local committee and follow the Guide for the Care and Use of Laboratory Animals published by the US National Institutes of Health (NIH Publication No. 85-23, revised 1996).
The mesentery was carefully removed by cutting close to the intestinal border with a small scissors. […] The vascular bed was rapidly perfused with warm KHS (37° C.; pH 7.4; gassed with 95% O2 in 5% CO2) in an open system with a constant flow of 4 ml/min maintained with a peristaltic pump. Alterations in perfusion pressure were continuously recorded in a four-channel polygraph (Narco Biosystems, Houston, Tex., USA) by means of a pressure transducer (P23 Gould Stratham, Oxnard, Calif., USA). After a 30 minute equilibration period, phenylephrine (1 to 5 μM) was infused by means of an infusion pump at a constant rate (0.1 ml/min) in order to achieve a stable perfusion pressure (100-120 mm Hg). Dose response curves were performed with vasodilators, i.e. acetylcholine (Ach; 10^-9 to 10^-3 M). Drugs were injected as 50 μL boluses, previously shown not to effect perfusion pressure in a side arm just above the cannula in the mesenteric artery. At least 6 separate experiments were performed each in duplicate.

[1] = system: renal vascular bed of perfused kidneys; test: Acute perfusion of diabetic rabbit kidneys: acetylcholine-induced decrease in perfusion pressure; design: species or system alloxan-diabetic rabbits; conditions: 3-week diabetic rabbit kidneys; for restoration of vasorelaxant effect of acetylcholine, DCI versus db-DCI: repeated perfusion experiment, 1 μM; for restoration of endothelial function (acetylcholine induced decrease in perfusion pressure): perfusion with 1 μM, first experiment
Description: Male California rabbits, weighing 2-2.5 kg, were provided by the vivarium of the Biomedicine Institute-UFC. Diabetes was induced by intraperitoneal injection of alloxan (150 mg/kg) and only animals with plasma glucose concentration above 200 mg/dl were included in the study. Age-matched euglycemic rabbits were used as controls.
Kidneys and aortic rings are harvested from diabetic rabbits after 3 weeks of alloxan injection. They are perfused with KHS containing 1 μM D-chiro-inositol, pinitol, dibutyryl D-chiro-inositol, myo-inositol or saline for 1 hour. Dose response curves for acetylcholine are then performed following prior phenylephrine vasoconstriction as described. At least 6 separate experiments will be performed each in duplicate.
Kidneys and aortic rings were harvested from diabetic rabbits after 3 weeks of alloxan injection. The animals were sacrificed under sodium pentobarbital anesthesia (Hypnol®, 150-200 mg/kg). […]. Rabbit kidneys were obtained from male New Zealand rabbits (1-1.5 kg) after cannulation of the renal artery in situ. [Thereafter the organ is rapidly perfused with warm KHS at 37° C., pH 7.4 and gassed with 95% O2 in 5% CO2 in an open system with a constant flow adjusted to yield 1 mL/g/min and maintained by a peristaltic pump. The alterations in perfusion pressure are continuously recorded in a four-channel polygraph (Narco Biosystems, Houston, Tex., USA) by means of a pressure transducer (P23 Gould Stratham, Oxnard, Calif., USA). After a 30 minute equilibration period, phenylephrine (1 to 5 μM) is infused by means of an infusion pump at a constant rate (0.1 ml/min) in order to achieve a stable perfusion pressure (100-120 mm Hg). Concentration-response curves are performed to the vasodilators, i.e. acetylcholine (Ach; 10^-9 to 10^-3 M). Drugs are injected as a 50 μL bolus, previously shown not to effect perfusion pressure in an arm side just above the cannula in the renal artery.] Following penectomy, the corpus cavernosum was dissected in Krebs solution and cleared of the tunica albuginea and surrounding tissues. Strips (2 cm) were mounted vertically in isometric baths (5 mL) in Krebs-Henseleit solution (37° C., pH 7.4 gassed with 95% O2 in 5% CO2) enriched with indomethecin (10 μM) and guanethedine (10 μM) in order to avoid prostanoid or neuronal norandrenergic interaction. After a 60 minute period for stabilization, tissues were precontracted with 10 μM phenylephrine in order to increase the basal tonus. Thereafter, frequency response curves to transmural electrical field stimulations (EFS—square wave pulses: 10 s train; 20 V, 0.5 ms, 2-16 Hz) were performed until two stable reproducible curves were attained. […]

[2] = listed as dibutyryl D-chiro-inositol

Row | Structure (SMILES) | effect on microvascular endothelial dysfunction (vascular mesenteric bed) | effect on microvascular endothelial dysfunction (vascular mesenteric bed; listed as D-chiro-inositol) | maximal decrease in perfusion pressure to acetylcholine (vascular mesenteric bed; tissues from alloxan-diabetic rats treated with D-chiro-inositol 20 mg/kg/12 h by gavage for 4 weeks, saline-treated diabetic 23±5%, normoglycemic 61±3.7%) [%] | restoration of vasorelaxant effect of acetylcholine, DCI versus db-DCI [1] | effect on microvascular endothelial dysfunction (vascular mesenteric bed; [2]) | restoration of endothelial function (acetylcholine induced decrease in perfusion pressure) ([1]; listed as db-DCI) | restoration of endothelial function (acetylcholine induced decrease in perfusion pressure) [1, 2]
1 | OC1C(O)C(O)C(O)C(O)C1O [DCI, D-chiro-inositol] | approximately equally effective | effective | 52±6 | partially restored |  |  | 
2 | CCCC(=O)O[C@@H]1[C@@H](O)[C@@H](O)[C@H](O)[C@H](O)[C@H]1OC(=O)CCC [dbDCI, 3,4-dibutyryl-D-chiroinositol] | perhaps slightly better than pinitol and DCI |  |  | partially restored | perhaps slightly better than pinitol and D-chiro-inositol | completely restored endothelial function | restored to normal
